Source: ChEMBL document CHEMBL6182863, “Discovery of novel rigid STING PROTAC degraders as potential therapeutics for acute kidney injury” (Eur J Med Chem, 2025)
In brackets after ≈: the same amount, converted by molar mass. Activity calls are given as the source filed them. The calls are words filed in the database; no cut-off is given here.

How the values were obtained:
[1] = Metabolic stability in human liver microsomes assessed as metabolic factor relative to control; assay type: ADME, Microsome
[2] = Water solubility of the compound at 2 mg by HPLC analysis; assay type: physicochemical
[3] = biological target: Protein cereblon/Stimulator of interferon genes protein (Homo sapiens, UniProt Q96SW2+Q86WV6); assay: PROTAC activity at CRBN/STING in human THP-1 cells assessed as induction of STING degradation at 5 uM measured after 24 hrs by Western blotting analysis relative to control; assay type: cell-based
[4] = Metabolic stability in human liver microsomes assessed as half life; assay type: ADME, Microsome
[5] = Metabolic stability in human liver microsomes assessed as intrinsic clearance per gram of protein; assay type: ADME, Microsome
[6] = biological target: von Hippel-Lindau disease tumor suppressor/Stimulator of interferon genes protein (Homo sapiens, UniProt P40337+Q86WV6); assay: PROTAC activity at VHL/STING (unknown origin); assay type: protein assay
von Hippel-Lindau disease tumor suppressor/Stimulator of interferon genes protein, sequence (P40337 whole entry): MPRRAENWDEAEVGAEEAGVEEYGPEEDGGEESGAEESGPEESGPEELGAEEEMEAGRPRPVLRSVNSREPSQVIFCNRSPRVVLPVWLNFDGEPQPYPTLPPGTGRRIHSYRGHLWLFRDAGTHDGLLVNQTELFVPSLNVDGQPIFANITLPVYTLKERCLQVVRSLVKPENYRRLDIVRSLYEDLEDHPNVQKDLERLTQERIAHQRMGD
von Hippel-Lindau disease tumor suppressor/Stimulator of interferon genes protein, sequence (Q86WV6 whole entry): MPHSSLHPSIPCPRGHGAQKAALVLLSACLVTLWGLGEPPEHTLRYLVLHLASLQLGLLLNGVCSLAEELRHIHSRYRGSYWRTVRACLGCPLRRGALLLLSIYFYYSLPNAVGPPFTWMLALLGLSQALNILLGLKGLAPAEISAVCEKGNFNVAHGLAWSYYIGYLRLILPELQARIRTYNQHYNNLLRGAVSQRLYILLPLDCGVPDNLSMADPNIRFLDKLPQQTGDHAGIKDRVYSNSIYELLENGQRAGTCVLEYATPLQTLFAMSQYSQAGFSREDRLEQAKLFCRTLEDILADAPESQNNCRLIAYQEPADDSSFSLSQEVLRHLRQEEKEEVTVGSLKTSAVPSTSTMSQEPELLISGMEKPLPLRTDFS

Protein cereblon/Stimulator of interferon genes protein, sequence (Q86WV6 whole entry, looked up): as the sequence (Q86WV6 whole entry) above
Protein cereblon/Stimulator of interferon genes protein, sequence (Q96SW2 whole entry, looked up): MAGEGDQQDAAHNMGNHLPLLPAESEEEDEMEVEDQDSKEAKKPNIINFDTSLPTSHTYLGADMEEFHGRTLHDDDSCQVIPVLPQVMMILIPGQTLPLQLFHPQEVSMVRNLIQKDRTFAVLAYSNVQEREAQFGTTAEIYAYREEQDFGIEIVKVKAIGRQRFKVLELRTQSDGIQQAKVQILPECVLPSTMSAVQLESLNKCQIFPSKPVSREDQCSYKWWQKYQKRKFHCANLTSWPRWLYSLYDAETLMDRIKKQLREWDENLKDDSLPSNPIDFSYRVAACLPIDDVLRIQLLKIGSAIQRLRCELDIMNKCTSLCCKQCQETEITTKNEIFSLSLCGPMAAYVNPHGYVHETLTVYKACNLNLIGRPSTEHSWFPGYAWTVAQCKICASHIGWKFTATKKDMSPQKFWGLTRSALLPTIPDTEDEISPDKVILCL

Activity [3] | other results | Compound
59.2% | Activity [1]: 1.3%; solubility [2]: 0.854 µg/mL (≈ 1.22 µM); half-life [4]: 1.41 min; CLint [5]: 1490 mL/min/g | O=C(/C=C/C(=O)Nc1ccc(NC(=O)c2ccc([N+](=O)[O-])o2)cc1)NCCCCCCNc1cccc2c1C(=O)N(C1CCC(=O)NC1=O)C2=O (stereo not drawn)
25.3% | – | O=C(/C=C/C(=O)N1CCN(C2CCN(c3cccc4c3C(=O)N(C3CCC(=O)NC3=O)C4=O)CC2)CC1)Nc1ccc(NC(=O)c2ccc([N+](=O)[O-])o2)cc1 (stereo not drawn)
inactive | – | O=C1CCC(N2C(=O)c3cccc(N4CCN(CC5CCN(C(=O)CCC(=O)Nc6ccc(NC(=O)c7ccc([N+](=O)[O-])o7)cc6)CC5)CC4)c3C2=O)C(=O)N1 (stereo not drawn)
40.7% | – | O=C1CCC(N2C(=O)c3cccc(N4CCN(CC5CN(C(=O)CCC(=O)Nc6ccc(NC(=O)c7ccc([N+](=O)[O-])o7)cc6)C5)CC4)c3C2=O)C(=O)N1 (stereo not drawn)
inactive | – | O=C(/C=C/C(=O)N1CC(CN2CCN(c3ccc4c(c3)C(=O)N(C3CCC(=O)NC3=O)C4=O)CC2)C1)Nc1ccc(NC(=O)c2ccc([N+](=O)[O-])o2)cc1 (stereo not drawn)
58% | solubility [2]: 6.098 µg/mL (≈ 8.25 µM) | O=C(/C=C/C(=O)N1CCN(C2CCN(c3cccc4c3C(=O)N(C3CCC(=O)NC3=O)C4=O)C2)CC1)Nc1ccc(NC(=O)c2ccc([N+](=O)[O-])o2)cc1 (stereo not drawn)
71.1% | solubility [2]: 1.562 µg/mL (≈ 2.04 µM) | O=C(/C=C/C(=O)N1CCC(CN2CCN(c3cccc4c3C(=O)N(C3CCC(=O)NC3=O)C4=O)CC2)CC1)Nc1ccc(NC(=O)c2ccc([N+](=O)[O-])o2)cc1 (stereo not drawn)
73.6% | – | O=C(/C=C/C(=O)N1CCN(CC2CCN(c3ccc4c(c3)C(=O)N(C3CCC(=O)NC3=O)C4=O)C2)CC1)Nc1ccc(NC(=O)c2ccc([N+](=O)[O-])o2)cc1 (stereo not drawn)
32.6% | – | O=C1CCC(N2C(=O)c3cccc(N4CCN(CC5CCN(C(=O)COCC(=O)Nc6ccc(NC(=O)c7ccc([N+](=O)[O-])o7)cc6)CC5)CC4)c3C2=O)C(=O)N1 (stereo not drawn)
inactive | – | O=C1CCC(N2C(=O)c3cccc(N4CCN(CC5CCN(C(=O)CCCC(=O)Nc6ccc(NC(=O)c7ccc([N+](=O)[O-])o7)cc6)CC5)CC4)c3C2=O)C(=O)N1 (stereo not drawn)
40.5% | – | O=C1CCC(N2C(=O)c3cccc(N4CCC(N5CCN(C(=O)CCCC(=O)Nc6ccc(NC(=O)c7ccc([N+](=O)[O-])o7)cc6)CC5)C4)c3C2=O)C(=O)N1 (stereo not drawn)
43.6% | solubility [2]: 6.485 µg/mL (≈ 8.78 µM) | O=C(/C=C/C(=O)N1CC(CN2CCN(c3cccc4c3C(=O)N(C3CCC(=O)NC3=O)C4=O)CC2)C1)Nc1ccc(NC(=O)c2ccc([N+](=O)[O-])o2)cc1 (stereo not drawn)
inactive | – | O=C(/C=C/C(=O)N1CCC(N2CCN(c3cccc4c3C(=O)N(C3CCC(=O)NC3=O)C4=O)CC2)CC1)Nc1ccc(NC(=O)c2ccc([N+](=O)[O-])o2)cc1 (stereo not drawn)
44.7% | – | O=C1CCC(N2C(=O)c3cccc(N4CCC(CN5CCN(C(=O)CCC(=O)Nc6ccc(NC(=O)c7ccc([N+](=O)[O-])o7)cc6)CC5)C4)c3C2=O)C(=O)N1 (stereo not drawn)
63.6% | – | O=C(/C=C/C(=O)N1CCN(CC2CCN(c3ccc4c(c3)C(=O)N(C3CCC(=O)NC3=O)C4=O)CC2)CC1)Nc1ccc(NC(=O)c2ccc([N+](=O)[O-])o2)cc1 (stereo not drawn)
inactive | – | O=C1CCC(N2C(=O)c3cccc(N4CCC(N5CCN(C(=O)CCC(=O)Nc6ccc(NC(=O)c7ccc([N+](=O)[O-])o7)cc6)CC5)C4)c3C2=O)C(=O)N1 (stereo not drawn)
inactive | – | O=C1CCC(N2C(=O)c3cccc(N4CCN(CC5CN(C(=O)COCC(=O)Nc6ccc(NC(=O)c7ccc([N+](=O)[O-])o7)cc6)C5)CC4)c3C2=O)C(=O)N1 (stereo not drawn)
52.3% | – | O=C(/C=C/C(=O)N1CCC(CN2CCN(c3ccc4c(c3)C(=O)N(C3CCC(=O)NC3=O)C4=O)CC2)CC1)Nc1ccc(NC(=O)c2ccc([N+](=O)[O-])o2)cc1 (stereo not drawn)
77.7% | solubility [2]: 2.872 µg/mL (≈ 3.82 µM) | O=C(/C=C/C(=O)N1CCN(CC2CCCN2c2cccc3c2C(=O)N(C2CCC(=O)NC2=O)C3=O)CC1)Nc1ccc(NC(=O)c2ccc([N+](=O)[O-])o2)cc1 (stereo not drawn)
30.3% | – | O=C(/C=C/C(=O)N1CC(N2CCN(c3cccc4c3C(=O)N(C3CCC(=O)NC3=O)C4=O)CC2)C1)Nc1ccc(NC(=O)c2ccc([N+](=O)[O-])o2)cc1 (stereo not drawn)
– | DC50 [6]: 227 nM | CCn1nc(C)cc1C(=O)Nc1nc2cc(C(=O)NCCCCCCCCC(=O)N[C@@H](C(=O)N3C[C@H](O)C[C@H]3C(=O)NCc3ccc(-c4scnc4C)cc3)C(C)(C)C)cc(OC)c2n1C/C=C/Cn1c(NC(=O)c2cc(C)nn2CC)nc2cc(C(N)=O)cc(OCCCN3CCOCC3)c21
72.3% | – | O=C(/C=C/C(=O)N1CCN(CC2CCCN2c2ccc3c(c2)C(=O)N(C2CCC(=O)NC2=O)C3=O)CC1)Nc1ccc(NC(=O)c2ccc([N+](=O)[O-])o2)cc1 (stereo not drawn)
43.6% | – | O=C(/C=C/C(=O)N1CCN(CC2CCN(c3cccc4c3C(=O)N(C3CCC(=O)NC3=O)C4=O)CC2)CC1)Nc1ccc(NC(=O)c2ccc([N+](=O)[O-])o2)cc1 (stereo not drawn)
20.3% | – | O=C(/C=C/C(=O)N1CCN(c2cccc3c2C(=O)N(C2CCC(=O)NC2=O)C3=O)CC1)Nc1ccc(NC(=O)c2ccc([N+](=O)[O-])o2)cc1 (stereo not drawn)
inactive | – | O=C1CCC(N2C(=O)c3cccc(N4CCC(N5CCN(C(=O)COCC(=O)Nc6ccc(NC(=O)c7ccc([N+](=O)[O-])o7)cc6)CC5)C4)c3C2=O)C(=O)N1 (stereo not drawn)
– | DC50 [6]: 530 nM | Cc1ncsc1-c1ccc(CNC(=O)[C@@H]2C[C@@H](O)CN2C(=O)[C@@H](NC(=O)CCC(=O)NCCCNC(=O)c2cccc(S(=O)(=O)n3cc(C(=O)NCCCCCC(=O)Oc4ccc(NC(=O)c5ccc(-c6ccccc6)cc5)cc4NS(=O)(=O)c4ccc(F)cc4)ccc3=O)c2)C(C)(C)C)cc1
inactive | – | O=C1CCC(N2C(=O)c3cccc(N4CCC(CN5CCN(C(=O)COCC(=O)Nc6ccc(NC(=O)c7ccc([N+](=O)[O-])o7)cc6)CC5)C4)c3C2=O)C(=O)N1 (stereo not drawn)
inactive | – | O=C(/C=C/C(=O)N1CCN(C2CCN(c3ccc4c(c3)C(=O)N(C3CCC(=O)NC3=O)C4=O)C2)CC1)Nc1ccc(NC(=O)c2ccc([N+](=O)[O-])o2)cc1 (stereo not drawn)
36.3% | – | O=C1CCC(N2C(=O)c3cccc(N4CCC(CN5CCN(C(=O)CCCC(=O)Nc6ccc(NC(=O)c7ccc([N+](=O)[O-])o7)cc6)CC5)C4)c3C2=O)C(=O)N1 (stereo not drawn)
inactive | – | O=C1CCC(N2C(=O)c3cccc(N4CCN(CC5CN(C(=O)CCCC(=O)Nc6ccc(NC(=O)c7ccc([N+](=O)[O-])o7)cc6)C5)CC4)c3C2=O)C(=O)N1 (stereo not drawn)
